Laboratory results from article PMC3722118, “Hellebrin and its aglycone form hellebrigenin display similar in vitro growth inhibitory effects in cancer cells and binding profiles to the alpha subunits of the Na^+/K^+-ATPase” (Molecular Cancer, 2013).
Like-named read-outs stand apart in the source and are kept apart here.

Columns and labels:
[1] = tested on: human cancer cells (A549, U373, Hs683, T98G, MCF-7, SKMEL-28, PC-3, HT-29); assay: MTT growth inhibition, mean over the eight human cancer cell lines; type: cell-based; settings: read-out: IC50 (nM) Mean ± SEM
From the text: (§1) The histological types and origins of the eight human cancer cell lines that were used for the MTT colorimetric assay are detailed in the legend of Table 1. Two mouse cancer cell lines were also used, the CT26.WT colon cancer cell line (ATCC code CRL-2638) and the B16F10 melanoma cell line (ATCC code CRL-6475). Both cell lines were obtained from the American Type Culture Collection (ATCC, Manassas, VA). A control cell line (human NHDF fibroblasts) was obtained from PromoCell (code c-12300; Heidelberg, Germany). The cell lines detailed in Figure 2A are a generous gift from the National Cancer Institute (NCI, Bethesda, USA) to Steven Karlish’s lab.
(§2) The cancer cells were cultured in RPMI (Lonza, Verviers, Belgium) medium supplemented with 10% heat-inactivated fetal calf serum (Lonza). All culture media were supplemented with 4 mM glutamine, 100 μg/mL gentamicin, 200 U/mL penicillin and 200 μg/mL streptomycin (Lonza). The NHDF fibroblasts were cultured in Lonza medium cc3132 KT FGM-2 BulletKit.
(§3) The overall growth level of the human cancer cell lines was determined using a colorimetric MTT (3-(4,5-dimethylthiazol-2yl)-2,5-diphenyltetrazolium bromide, Sigma, Belgium) assay as detailed previously. Briefly, this test measures the number of metabolically active (thus living) cells that are able to transform the yellow MTT into the blue formazan dye via a mitochondrial reduction involving succinate dehydrogenase. The amount of formazan obtained at the end of the experiment (measured by spectrophotometry) is directly proportional to the number of living cells. The determination of the optical density in the control compared to the treated cells therefore enables quantitative measurements of the effects of compounds on the growth of normal as well as cancer cells in vitro.
(§4) Each experimental condition was performed in six replicates.

[2] = tested on: HT-29 colon cancer cells; assay: MTT colorimetric in vitro growth inhibition assay; type: cell-based, human; settings: read-out: IC50 (nM) HT-29
From the text: as §1, §2, §3, §4

[3] = tested on: A549 NSCLC cells; assay: MTT colorimetric in vitro growth inhibition assay; type: cell-based, human; settings: read-out: IC50 (nM) A549
From the text: as §1, §2, §3, §4

[4] = tested on: U373 glioma cells; assay: MTT colorimetric in vitro growth inhibition assay; type: cell-based, human; settings: read-out: IC50 (nM) U373
From the text: as §1, §2, §3, §4

[5] = tested on: T98G glioma cells; assay: MTT colorimetric in vitro growth inhibition assay; type: cell-based, human; settings: read-out: IC50 (nM) T98G
From the text: as §1, §2, §3, §4

[6] = tested on: MCF-7 breast cancer cells; assay: MTT colorimetric in vitro growth inhibition assay; type: cell-based, human; settings: read-out: IC50 (nM) MCF-7
From the text: as §1, §2, §3, §4

[7] = tested on: PC-3 prostate cancer cells; assay: MTT colorimetric in vitro growth inhibition assay; type: cell-based, human; settings: read-out: IC50 (nM) PC-3
From the text: as §1, §2, §3, §4

[8] = tested on: Hs683 glioma cells; assay: MTT colorimetric in vitro growth inhibition assay; type: cell-based, human; settings: read-out: IC50 (nM) Hs683
From the text: as §1, §2, §3, §4

[9] = tested on: SKMEL-28 melanoma cells; assay: MTT colorimetric in vitro growth inhibition assay; type: cell-based, human; settings: read-out: IC50 (nM) SKMEL-28
From the text: as §1, §2, §3, §4

[10] = tested on: HT-29 colon cancer cells; assay: O2 consumption rate (MitoXpress assay); type: cell-based, human; settings: compounds at their IC50 (MTT), 24 h
Experimental: For enzymatic determination of lactate production, confluent tumor cells were incubated with 10 mM glucose for 24 hours. Culture medium was then filtered through centrifugation columns with a 10 KDa cutoff, and L-lactate concentrations were determined on an ISCUSflex analyzer (CMA Microdialysis AB, Solna, Sweden). O2 consumption was determined using the MitoXpress assay according to the manufacturer’s instructions (LuxCell Biosciences, Cork, Ireland). Briefly, after adding the oxygen probe to tumor cells cultured for 24 hours in 96-well microplates with or without the tested compounds, the wells were sealed with mineral oil, and respiration was evaluated using time-resolved fluorescent plate readers. Under these conditions, O2 depletion was translated into an increase in probe phosphorescence signal, and the slope of this signal was used to derive the O2 consumption rate.
Figure 6 Metabolic profiling of human HT29 colon cancer cells treated with cardiotonic steroids. A: Extracellular lactate concentrations and B: O2 consumption rates in HT29 cancer cells treated with the indicated compounds at their IC50in vitro growth inhibitory concentrations (see Table 1). The data (mean ± SEM from triplicates) are expressed in mM lactate accumulated in the extracellular medium after 24 hours and arbitrary units derived from time-resolved fluorescent signal.min^-1.

[11] = tested on: NHDF fibroblasts; assay: MTT growth inhibition in non-cancerous control cell line; type: cell-based; settings: NHDF, normal human fibroblasts, read-out: in vitro growth inhibitory effects (IC50) in NHDF fibroblasts
From the text: as §1, §2, §3, §4

[12] = target: T1, human α3β1 NaK complex (Homo sapiens, UniProt P13637); assay: 3H-ouabain competitive displacement on P. pastoris membranes; type: binding
T1 construct: made in house; host or cells: Pichia pastoris strain SMD1165 (membranes)
Experimental: (§5) K0.5 was calculated using a one site inhibition model: B/BCG=0 = K0.5/([CG] + K0.5). […] Binding of each cardiac glycoside was estimated in 3 separate experiments.
(§6) Average KD or Ki values ± SEM for each isoform were calculated. Statistical significance was calculated by the unpaired Students t-test. P values <0.05 were considered significant.

[13] = target: T2, human α2β1 NaK complex (Homo sapiens, UniProt P50993); assay: as above; type: binding
T2 construct: made in house; host or cells: Pichia pastoris strain SMD1165 (membranes)
Experimental: as §5, §6

[14] = target: T3, human α1β1 NaK complex (Homo sapiens, UniProt P05023); assay: as above; type: binding; settings: 3H-ouabain displacement, three independent experiments; read-out: Affinity (nM) α-1 (KD ± SEM)
T3 construct: made in house; host or cells: Pichia pastoris strain SMD1165 (membranes)
Experimental: as §5, §6

[15] = target: T4, purified human α1β1 Na+/K+-ATPase (Homo sapiens, UniProt P05023); assay: Inhibition of NaK activity of purified detergent-soluble complex (Pi release); type: biochemical; settings: 37°C, 1 h, 1 mM ATP; read-out: Ki for inhibition of NaK activity of purified human α1β1
T4 construct: made in house; host or cells: Pichia pastoris strain SMD1165; detergent-soluble complex purified
Experimental: The inhibition of NaK activity of the purified detergent-soluble α1β1, α2β1, and α3β1 complexes by cardiotonic steroids and an analysis of the inhibition data (Ki values) were also performed as previously described. The inhibitors were added to the recombinant enzyme (0.08–0.2 μg of protein) in 400 μl of reaction medium containing 130 mM NaCl, 5 mM KCl, 3 mM MgCl2, 25 mM histidine, pH 7.4, 1 mM EGTA, 0.01 mg/ml SOPS, 0.001 mg/ml cholesterol, and 0.005 mg/ml C12 E8 in 48-well plates. The reaction (37°C for 1 h) was started by the addition of 1mM ATP. Pi release was measured with a malachite green dye to detect the phosphor-molybdate (Pi Color Lock, Innova Biosciences). The percent inhibition V /V0 was calculated for each cardiac glycoside concentration, and Ki values were obtained by fitting the data to the function V /V0 = Ki /([CG] + Ki ) (using Kaleidagraph). V0 and V represent the control rate and rate of NaK-ATPase activity at particular concentrations of cardiac glycosides, [CG], respectively.
as §6

[16] = 72 h, mean over eight human cancer cell lines, three days of culture
[17] = Homo sapiens, HT-29, 72 h, three days of culture, * three independent experiments, ** one experiment, six replicates
[18] = Homo sapiens, A549, 72 h, three days of culture, * three independent experiments, ** one experiment, six replicates
[19] = Homo sapiens, U373 MG, 72 h, three days of culture, * three independent experiments, ** one experiment, six replicates
[20] = Homo sapiens, T98G, 72 h, three days of culture, * three independent experiments, ** one experiment, six replicates
[21] = Homo sapiens, MCF7, 72 h, three days of culture, * three independent experiments, ** one experiment, six replicates
[22] = Homo sapiens, 72 h, three days of culture, * three independent experiments, ** one experiment, six replicates
[23] = Homo sapiens, Hs 683, 72 h, three days of culture, * three independent experiments, ** one experiment, six replicates
[24] = Homo sapiens, SK-MEL-28, 72 h, three days of culture, * three independent experiments, ** one experiment, six replicates
[25] = three days of culture, * three independent experiments, ** one experiment, six replicates

Structure (SMILES) | IC50 ([1]; Homo sapiens, 72 h) [nM] | IC50 ([2]; Homo sapiens, HT-29, 72 h) [nM] | IC50 ([3]; Homo sapiens, A549, 72 h) [nM] | IC50 ([4]; Homo sapiens, U373 MG, 72 h) [nM] | IC50 ([5]; Homo sapiens, T98G, 72 h) [nM] | IC50 ([6]; Homo sapiens, MCF7, 72 h) [nM] | IC50 ([7]; Homo sapiens, 72 h) [nM] | IC50 ([8]; Homo sapiens, Hs 683, 72 h) [nM] | IC50 ([9]; Homo sapiens, SK-MEL-28, 72 h) [nM] | IC50 [1, 16] [nM] | IC50 [2, 17] [nM] | IC50 [3, 18] [nM] | IC50 [4, 19] [nM] | IC50 [5, 20] [nM] | IC50 [6, 21] [nM] | IC50 [7, 22] [nM] | IC50 [8, 23] [nM] | IC50 [9, 24] [nM] | other results
C[C@]12CC[C@H](O)C[C@H]1CC[C@@H]1[C@@H]2CC[C@]2(C)[C@@H](C3=CC(=O)OC3)CC[C@]12O [Digitoxigenin] | 733 ± 349 | 230 | 92 | 369 | 166 | 2130 | 298 | 79 | 2500 | – | – | – | – | – | – | – | – | – | –
C[C@H]1O[C@@H](O[C@H]2[C@@H](O)C[C@H](O[C@H]3[C@@H](O)C[C@H](O[C@H]4CC[C@@]5(C)[C@H](CC[C@@H]6[C@@H]5CC[C@]5(C)[C@@H](C7=CC(=O)OC7)CC[C@]65O)C4)O[C@@H]3C)O[C@@H]2C)C[C@H](O)[C@@H]1O [Digitoxin, digitoxin] | – | – | – | – | – | – | – | – | – | 75 ± 26 | 198 | 11 | 61 | 32 | 187 | 37 | 15 | 59 | –
C[C@]12CC[C@H](O)C[C@H]1CC[C@@H]1[C@@H]2C[C@@H](O)[C@]2(C)[C@@H](C3=CC(=O)OC3)CC[C@]12O [Digoxigenin, digoxigenin] | – | – | – | – | – | – | – | – | – | 2900 | 4460 | 395 ± 34 | 3190 | 1170 | 5320 | 3880 | 794 ± 22 | 4000 | –
C[C@H]1O[C@@H](O[C@H]2[C@@H](O)C[C@H](O[C@H]3[C@@H](O)C[C@H](O[C@H]4CC[C@@]5(C)[C@H](CC[C@@H]6[C@@H]5C[C@@H](O)[C@]5(C)[C@@H](C7=CC(=O)OC7)CC[C@]65O)C4)O[C@@H]3C)O[C@@H]2C)C[C@H](O)[C@@H]1O [Digoxin, digoxin] | – | – | – | – | – | – | – | – | – | 202 ± 37 | 208 ± 20 | 60 ± 7 | 227 ± 42 | 274 ± 17 | 363 ± 35 | 215 ± 71 | 51 ± 6 | 220 ± 26 | O2 consumption rate (cell respiration) [10]: significantly reduced
C[C@]12CC[C@H](O)C[C@H]1CC[C@@H]1[C@@H]2[C@H](O)C[C@]2(C)[C@@H](c3ccc(=O)oc3)CC[C@]12O [Gamabufotalin, gamabufotalin] | 26 ± 4 | 37 ± 3 | 7 ± 1 | 34 ± 1 | 31 ± 8 | 40 ± 7 | 22 ± 4 | 14 ± 3 | 22 ± 1 | – | – | – | – | – | – | – | – | – | IC50 [11]: > 10000 nM; Kd ([12]; 3H-ouabain displacement, three independent experiments, read-out: Affinity (nM) α-3 (KD ± SEM)): 236 ± 14 nM; Selectivity α-1 / α-3 ([12]; ratio of KD α-1 to KD α-3): 1.0; Kd ([13]; 3H-ouabain displacement, three independent experiments, read-out: Affinity (nM) α-2 (KD ± SEM)): 247 ± 30 nM; Selectivity α-1 / α-2 ([13]; ratio of KD α-1 to KD α-2): 1.0; Kd [14]: 243 ± 48 nM
C[C@]12C[C@@H](O)[C@H]3[C@@H](CC[C@]4(O)C[C@@H](O)C[C@@H](O)[C@]34CO)[C@@]1(O)CC[C@@H]2C1=CC(=O)OC1 [Ouabagenin, ouabagenin] | – | – | – | – | – | – | – | – | – | – | – | – | – | – | – | – | – | – | Ki [15]: 721 ± 70 nM; IC50 ([1]; mean over eight human cancer cell lines, three days of culture): 3050 nM; IC50 [2, 25]: 3480 nM; IC50 [3, 25]: 866 ± 25 nM; IC50 [4, 25]: 5280 nM; IC50 [5, 25]: 3600 nM; IC50 [6, 25]: 4010 nM; IC50 [7, 25]: 2710 nM; IC50 [8, 25]: 1900 nM; IC50 [9, 25]: 2560 nM
